Holding throughout (format): cell-based
In one experiment the target is T1, ADBR2 (Homo sapiens, UniProt P07550).
T1 construct: host or cells: HEK293 or CHO cell lines (ATCC)
In words: CRE-Luc reporter Gs signaling assay, control receptor ADBR2. The procedure:
Compounds were tested in the reporter system with increasing concentrations of GPR174-interacting compounds. GPR174 construct pCMV6-XL4-GPR174 or ADBR2, reporter of interest, pCRE-Luc or GL4.29 (3000 ng), and TK-renilla as an internal control (10 ng) with lipofectamine 2000 (60 ug) (Invitrogen, CA) according to the manufacturer's directions.
The DNA/lipofectamine 2000 mix (3000 μL) was incubated at room temperature for 30 minutes and then added into a 10 cm culture dish (Corning, NY) containing 70-90% confluent cultured cells, typically HEK293 or CHO cell lines (ATCC, VA), in 15 mL of media. The cells were further incubated for 4-6 hours at 37° C. and then media were removed and cells were detached with 2 mL trypsin (Life Technologies, CA). Media (26 mL) were added to the detached cells and 120 μL of transfected cells were transferred to each well on a 96-well plate. Increasing concentration of each compound in DMSO (1.2 μl) was added to the cells after plating into the 96-well plate. The cells were further incubated at 37° C. for various times. The media were removed and the cells lysed. Luciferase and renilla activities were measured with the Dual-luciferase assay system (Promega, WI) according to the manufacturer's directions. Typically, lysis buffer (25 μL) was added to the cells and incubated at room temperature for 20-30 minutes to allow for the cells to lyse. The lysate (10 μL) was measured for luciferase and renilla activity with LARII and Stop&Glo reagent (50 μL each) with a SpectraMax L (Molecular Devices, CA). Data were analyzed with either Excel (Microsoft, WA) or Prism 4.03 (GraphPad, CA).
ADBR2 is a GPCR, like GPR174, that activates the Gs signaling pathway.

In a further experiment the test system is human PBMCs. In words: Treg (FoxP3/Helios) flow cytometry in anti-CD3/anti-CD28 stimulated human PBMCs. The procedure: (§1) A fraction of the cells was taken for staining on day 3 post-stimulation, while the rest of the cells were split 1:4 with fresh medium and used for staining on day 7 post-stimulation. To determine the fraction of natural Treg (nTreg) cells (FoxP3^+Helios^+), PBMCs were washed, stained with fluorescently labeled anti-CD4 antibodies, fixed, permeabilized and stained with a mixture of fluorescent anti-FoxP3 and anti-Helios antibodies. Labeled cells were analyzed by flow cytometry for populations stained for these three markers. Each experiment was performed in triplicate and was repeated five times.
as §1, with “three” for “five”
as §1, with “day 2” for “day 3”, “(FoxP3^+Helios^+), PBMC” for “(FoxP3^+Helios^+), PBMCs”

The test system of experiment [1] is CTLA4 expression in human PBMC T cells. Nature of the experiment: CTLA4 expression on T cell subsets in human PBMC cultures. As to conditions: 0.19-6.0 μM; one day post-stimulation; dose-dependent. The procedure: PBMC cells from a single donor were cultured overnight with additional irradiated antigen-presenting cells (APC) in the presence of various concentrations of GPR174 inhibitory compound #10 (0.019 to 6 μM) or equivalent concentrations of vehicle (DMSO). Anti-CD3 (OKT3) was then added to the cultures for an additional 24 hours. The cells were analyzed by flow cytometry for expression of FOXP3, CTLA-4, CD4, CD3, CD45RA and CD25.

T1 sequence (P07550 whole entry): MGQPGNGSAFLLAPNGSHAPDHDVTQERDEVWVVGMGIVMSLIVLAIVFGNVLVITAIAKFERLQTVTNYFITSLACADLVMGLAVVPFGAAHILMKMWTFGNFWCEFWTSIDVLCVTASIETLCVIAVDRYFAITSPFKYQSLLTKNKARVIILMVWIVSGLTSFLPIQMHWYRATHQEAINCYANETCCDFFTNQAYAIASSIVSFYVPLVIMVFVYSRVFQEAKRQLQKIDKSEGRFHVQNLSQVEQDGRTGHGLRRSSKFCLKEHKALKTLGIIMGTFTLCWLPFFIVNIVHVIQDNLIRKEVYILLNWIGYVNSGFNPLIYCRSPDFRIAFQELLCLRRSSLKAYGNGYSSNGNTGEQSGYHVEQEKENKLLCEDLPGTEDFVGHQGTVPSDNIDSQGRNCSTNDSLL

As to `CC1CCN(c2cc(N3CCN(S(=O)(=O)c4ccccc4)CC3)c([N+](=O)[O-])cc2F)CC1` [Compound 10], the “effect on Gs pathway in the presence of ADBR2” value at ADBR2 is “did not inhibit the Gs pathway”. Also, in the experiment on human PBMCs (day 3 post-stimulation, 100 μM, p=0.03 vs vehicle), the “fraction of FoxP3+Helios− cells in CD4+ population” value was “significantly increased”. Further, the “abundance of FoxP3+Helios+ nTreg cells (fraction of vehicle)” value in the experiment with human PBMCs (day 7, 30 μM, PBMC from eight donors) is recorded as “significantly reduced”. For the same compound, the “abundance of FoxP3+Helios+ nTreg cells in CD4+ population” value in the experiment on human PBMCs (day 7, 3, 10, 30 μM, single donor, dose-dependent) is given as “significantly reduced”. For the same compound, the “abundance of FoxP3+Helios+ nTreg cells in CD4+ population” value in the experiment with human PBMCs (day 7 post-stimulation, 100 μM, p=0.01 vs vehicle) is recorded as “significantly reduced”. Besides, in experiment [1], the “CTLA4 positive fraction of memory Treg (CD45RA−FOXP3+)” value is listed as “reduced”, the “CTLA4 positive fraction of memory non-Treg (CD45RA−FOXP3−)” value is reported as “reduced”, the “CTLA4 positive fraction of naïve non-Treg cells (CD45RA+FOXP3−)” value is recorded as “reduced” and the “CTLA-4 positive fraction of naïve Treg cells (CD45RA+FOXP3+)” value is listed as “reduced”.

The record behind these values is US20230321083A1, “Inhibitors of GPR174 and Uses Thereof” (Omeros Corporation, priority 2016, published 2023).
